Among the data in publication PMC6934184, “Selective DNA-PKcs inhibition extends the therapeutic index of localized radiotherapy and chemotherapy” (The Journal of Clinical Investigation, 2019) are inhibition values, retold here.

The target in this test is T1, RET V804L (Homo sapiens, UniProt P07949, V804L).
T1 construct: purchased Thermo Fisher Scientific (Life Technologies) SelectScreen
Put plainly: SelectScreen Z'LYTE. The class given is biochemical. In short, it runs like this: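 SelectScreen broad panel; activity (Z'LYTE, Adapta) plus binding formats. ATP: Km app for CSF1R Z'LYTE; 10 for CAMK1 Adapta. Readout = % per kinase.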

T1 sequence (P07949 29-1114 V804L): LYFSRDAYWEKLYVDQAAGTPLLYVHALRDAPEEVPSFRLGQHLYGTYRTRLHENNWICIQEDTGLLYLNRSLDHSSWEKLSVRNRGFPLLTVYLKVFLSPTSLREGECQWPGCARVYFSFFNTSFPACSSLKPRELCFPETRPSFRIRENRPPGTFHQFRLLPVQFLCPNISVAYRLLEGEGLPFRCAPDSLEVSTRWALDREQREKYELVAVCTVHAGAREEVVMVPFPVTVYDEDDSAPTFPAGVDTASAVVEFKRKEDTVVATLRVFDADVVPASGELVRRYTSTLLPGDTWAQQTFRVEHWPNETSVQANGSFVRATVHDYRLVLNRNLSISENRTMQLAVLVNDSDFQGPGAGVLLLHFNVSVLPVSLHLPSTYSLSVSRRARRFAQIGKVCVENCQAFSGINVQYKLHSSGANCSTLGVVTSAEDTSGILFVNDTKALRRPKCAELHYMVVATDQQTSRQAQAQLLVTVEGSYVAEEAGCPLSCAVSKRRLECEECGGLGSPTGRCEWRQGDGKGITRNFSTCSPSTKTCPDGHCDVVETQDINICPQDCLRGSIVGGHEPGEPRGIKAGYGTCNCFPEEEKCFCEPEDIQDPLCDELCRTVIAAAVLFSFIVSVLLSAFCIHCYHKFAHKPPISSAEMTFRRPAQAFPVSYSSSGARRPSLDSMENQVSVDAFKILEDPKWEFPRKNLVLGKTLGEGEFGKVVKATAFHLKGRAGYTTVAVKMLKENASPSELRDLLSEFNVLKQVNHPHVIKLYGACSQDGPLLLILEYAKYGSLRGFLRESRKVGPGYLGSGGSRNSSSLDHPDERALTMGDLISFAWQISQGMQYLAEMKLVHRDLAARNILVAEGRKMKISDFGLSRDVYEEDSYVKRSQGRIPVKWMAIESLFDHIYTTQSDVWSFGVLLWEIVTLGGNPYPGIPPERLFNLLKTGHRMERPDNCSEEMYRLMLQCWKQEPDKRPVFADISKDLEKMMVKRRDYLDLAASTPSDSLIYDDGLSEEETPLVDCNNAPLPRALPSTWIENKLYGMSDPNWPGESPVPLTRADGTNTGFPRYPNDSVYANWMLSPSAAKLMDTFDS

By inhibition is commonly meant the relative decrease from the control value, in per cent. `CN(C(=O)CN1CCOCC1)c1ccc2sc3c(-c4cccc5c(=O)cc(N6CC7CCC(C6)O7)oc45)cccc3c2c1` [NU5455]: the inhibition at 1 µM is -9.1%.
